The target of the assay is Serotonin 2 (5-HT2) receptor (Rattus norvegicus, UniProt P30994+P08909+P14842). The experiment in a line: In vitro binding affinity towards 5-hydroxytryptamine 2 receptor in rat striatal membranes by [3H]ketanserin displacement. It is filed as cell membranes, Striatum, Membrane.

Molecules are shown by their SMILES.

The text below walks through data of ChEMBL document CHEMBL1126850, “Examination of the D2/5-HT2 affinity ratios of resolved 5,6,7,8,9,10-hexahydro-7,10-iminocyclohept[b]indoles: an enantioselective approach toward the design of potential atypical antipsychotics” (J Med Chem, 1993).

`O=C(CCCCN1C2CCC1c1c([nH]c3ccc(F)cc13)C2)c1ccc(F)cc1` (stereo in doubt; (S,R)-9) came in with a Ki of 1.87 nM.
The figure for `O=C(CCCN1C2CCC1c1c([nH]c3ccc(F)cc13)C2)c1ccc(F)cc1` (racemic) is 1.96 nM; for `O=C(CCCN1C2CCC1c1c([nH]c3ccc(F)cc13)C2)c1ccc(F)cc1` (mixture of isomers) it is 2.56 nM.
The figure for `O=C(CCCCN1C2CCC1c1c([nH]c3ccc(F)cc13)C2)c1ccc(F)cc1` (racemic) is 2.98 nM; for `O=C(CCCCN1C2CCC1c1c([nH]c3ccc(F)cc13)C2)c1ccc(F)cc1` (mixture of isomers) it is 109 nM.
For the compound `O=C(CCCN1C2CCC1c1c([nH]c3ccc(F)cc13)C2)c1ccc(F)cc1` (stereo in doubt; (S,R) 8), the Ki is given as 0.8 nM. This Ki is about 140-fold lower than that of the compound before.
